# From ChEMBL document CHEMBL1133789, “The discovery of anthranilic acid-based MMP inhibitors. Part 1: SAR of the 3-position” (Bioorg Med Chem Lett, 2001)
# The source made the active and inactive calls.
# How the values were obtained:
# [1] = target: T1, Interstitial collagenase (Homo sapiens, UniProt P03956); test: Inhibitory activity against Matrix metalloprotease-1
# T1 sequence (P03956 whole entry): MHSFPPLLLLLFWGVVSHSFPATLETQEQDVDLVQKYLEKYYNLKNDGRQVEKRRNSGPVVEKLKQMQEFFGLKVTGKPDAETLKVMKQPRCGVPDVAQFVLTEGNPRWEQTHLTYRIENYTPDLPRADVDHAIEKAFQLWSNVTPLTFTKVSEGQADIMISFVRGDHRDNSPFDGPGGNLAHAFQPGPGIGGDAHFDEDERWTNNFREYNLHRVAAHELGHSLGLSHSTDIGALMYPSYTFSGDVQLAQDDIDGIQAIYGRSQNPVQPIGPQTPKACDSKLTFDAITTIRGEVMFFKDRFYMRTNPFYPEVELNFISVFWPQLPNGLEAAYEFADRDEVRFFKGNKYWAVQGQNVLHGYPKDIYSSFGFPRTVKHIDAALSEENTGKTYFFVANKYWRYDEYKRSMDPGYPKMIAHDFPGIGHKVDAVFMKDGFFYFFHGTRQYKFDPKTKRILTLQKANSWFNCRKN
# [2] = target: T2, Matrix metalloproteinase-9 (Homo sapiens, UniProt P14780); test: Inhibitory activity against Matrix metalloprotease-9
# T2 sequence (P14780 whole entry): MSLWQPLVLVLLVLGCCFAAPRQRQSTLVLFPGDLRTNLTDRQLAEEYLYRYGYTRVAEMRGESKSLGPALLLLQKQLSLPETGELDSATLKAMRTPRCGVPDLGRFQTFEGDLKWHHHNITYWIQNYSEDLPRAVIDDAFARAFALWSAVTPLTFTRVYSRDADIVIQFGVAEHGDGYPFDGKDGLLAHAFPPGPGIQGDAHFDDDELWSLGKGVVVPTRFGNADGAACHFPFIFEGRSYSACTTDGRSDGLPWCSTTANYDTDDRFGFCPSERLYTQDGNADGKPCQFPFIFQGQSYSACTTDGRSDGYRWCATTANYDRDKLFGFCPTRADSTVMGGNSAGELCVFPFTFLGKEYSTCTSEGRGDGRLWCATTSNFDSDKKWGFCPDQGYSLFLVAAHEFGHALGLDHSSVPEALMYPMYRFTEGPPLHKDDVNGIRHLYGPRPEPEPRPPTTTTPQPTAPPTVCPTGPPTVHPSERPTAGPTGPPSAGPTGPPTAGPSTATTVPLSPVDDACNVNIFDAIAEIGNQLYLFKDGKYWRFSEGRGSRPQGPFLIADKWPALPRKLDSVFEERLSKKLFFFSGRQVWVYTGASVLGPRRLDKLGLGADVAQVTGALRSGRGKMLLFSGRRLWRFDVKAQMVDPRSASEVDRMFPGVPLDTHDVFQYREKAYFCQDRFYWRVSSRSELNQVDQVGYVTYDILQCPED
# [3] = target: Collagenase 3 (Homo sapiens, UniProt P45452)
# Description: Inhibitory activity against Matrix metalloprotease-13
# [4] = target: T3, Interstitial collagenase (Homo sapiens) (UniProt P03956); test: Inhibition of Matrix metalloprotease-1 at 1 uM
# T3 sequence (whole entry): T1 sequence (P03956 whole entry)
# [5] = target: T3, Interstitial collagenase (Homo sapiens); test: Inhibition of Matrix metalloprotease-1 at 1 uM (inactive)
# [6] = target: T3, Interstitial collagenase (Homo sapiens); test: Inhibition of Matrix metalloprotease-1 (inactive)
# [7] = species: Bos taurus; test: Inhibition of collagen degradation in a bovine articular cartilage assay; format: functional
# [8] = target: T2, Matrix metalloproteinase-9; test: Tested the po dose effective against Matrix metalloprotease-9 in the dialysis tubing implant assay; format: functional, organism-based
# [9] = target: T2, Matrix metalloproteinase-9; test: Dose at which the compound was equipotent with CGS-27023 against matrix metalloprotease-9 in the dialysis tubing implant assay; format: functional
# [10] = tested on: Rattus norvegicus; test: In vivo inhibition of collagen degradation in a rat sponge wrapped cartilage model at a dose of 50 mg/kg ip; format: functional; conditions: route intraperitoneal
# [11] = target: Disintegrin and metalloproteinase domain-containing protein 17 (Homo sapiens, UniProt P78536)
# Sequence of Disintegrin and metalloproteinase domain-containing protein 17 (P78536 whole entry, the tested form may be a part): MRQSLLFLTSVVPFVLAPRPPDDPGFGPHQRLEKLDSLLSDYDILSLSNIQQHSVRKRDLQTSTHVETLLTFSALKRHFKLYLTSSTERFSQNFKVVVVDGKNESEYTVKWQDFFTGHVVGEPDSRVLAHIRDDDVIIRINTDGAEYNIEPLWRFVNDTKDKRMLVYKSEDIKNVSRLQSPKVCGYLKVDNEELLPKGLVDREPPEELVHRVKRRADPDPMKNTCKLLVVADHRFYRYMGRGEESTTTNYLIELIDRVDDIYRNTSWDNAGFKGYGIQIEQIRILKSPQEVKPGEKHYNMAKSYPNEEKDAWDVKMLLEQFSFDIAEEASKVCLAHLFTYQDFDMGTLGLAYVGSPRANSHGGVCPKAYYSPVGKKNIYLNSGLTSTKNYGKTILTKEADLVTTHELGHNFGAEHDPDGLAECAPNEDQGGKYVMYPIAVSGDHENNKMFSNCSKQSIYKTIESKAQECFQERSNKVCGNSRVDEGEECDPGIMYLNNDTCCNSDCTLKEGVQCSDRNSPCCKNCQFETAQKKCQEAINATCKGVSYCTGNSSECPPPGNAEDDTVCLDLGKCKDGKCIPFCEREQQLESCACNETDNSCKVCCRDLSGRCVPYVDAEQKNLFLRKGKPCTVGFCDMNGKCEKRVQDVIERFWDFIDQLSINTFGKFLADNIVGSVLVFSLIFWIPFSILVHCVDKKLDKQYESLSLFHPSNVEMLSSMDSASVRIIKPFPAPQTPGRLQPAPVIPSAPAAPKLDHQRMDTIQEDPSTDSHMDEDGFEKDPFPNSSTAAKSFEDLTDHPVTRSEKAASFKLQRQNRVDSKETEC
# Description: Inhibition of TNF-alpha converting enzyme (TACE)
# [12] = species: Bos taurus; test: animal or person; conditions: po, read-out: Inhibition
structure (smiles),measurement,setting,value
COc1ccc(S(=O)(=O)N(Cc2ccccc2)c2c(OC)cccc2C(=O)NO)cc1,IC50,[1],520 nM
COc1ccc(S(=O)(=O)N(Cc2ccccc2)c2c(OC(C)(C)C(=O)NO)cccc2C(=O)NO)cc1,IC50,[1],597 nM
same,IC50,[2],4 nM
COc1ccc(S(=O)(=O)N(Cc2ccccc2)c2c(C(=O)NO)cccc2C(F)(F)F)cc1,IC50,[3],136 nM
same,inhibition,[4],41%
COc1ccc(S(=O)(=O)N(Cc2ccccc2)c2cccc(C(=O)NO)c2)cc1,inhibition,[5],inactive
COc1ccc(S(=O)(=O)N(Cc2ccccc2)c2c(C(=O)NO)cccc2N(C)C)cc1,inhibition,[4],19%
COc1ccc(S(=O)(=O)N(Cc2ccccc2)c2ccc(C(=O)NO)cc2)cc1,inhibition,[6],inactive
COc1ccc(S(=O)(=O)N(Cc2cccnc2)c2c(C)cccc2C(=O)NO)cc1,IC50,[1],143 nM
same,Inhibition,[7],49%
same,ED50,[8],33 mg/kg
same,DOSE,[9],50 mg/kg
same,inhibition in vivo at 50 mg/kg,[10],51%
COc1ccc(S(=O)(=O)N(Cc2ccccc2)c2c(C(=O)NO)cccc2[N+](=O)[O-])cc1,IC50,[1],202 nM
same,IC50,[3],42 nM
same,IC50,[2],13 nM
COC(=O)c1cccc(C(=O)NO)c1N(Cc1cccnc1)S(=O)(=O)c1ccc(OC)cc1,IC50,[2],6 nM
COc1ccc(S(=O)(=O)N(Cc2ccccc2)c2c(OCC(=O)NO)cccc2C(=O)NO)cc1,IC50,[3],1 nM
same,IC50,[2],2 nM
same,IC50,[11],81 nM
COc1ccc(S(=O)(=O)N(Cc2cccnc2)[C@@H](C(=O)NO)C(C)C)cc1 [CGS-27023A],inhibition in vivo at 50 mg/kg,[12],52%
